Series [1] can be described thus: Erythrocyte hemolysis assay. It is filed as cell-based. To be noted: human erythrocytes (5% suspension), healthy human erythrocytes. On the procedure: The hemolytic activity of the potential PhoQ inhibitors was determined using human erythrocytes. The erythrocytes were washed three times with sterile saline and resuspended to 5% cell concentration prior to assay. Then, 200 µl erythrocyte suspensions containing 25 µmol/L or 100 µmol/L concentrations of each potential PhoQ inhibitors were added in triplicate to the wells of the 96-well microtiter plates. Cells without potential PhoQ inhibitors treatment or with 1% Triton-100 treatment were used as the zero or 100% hemolysis control, respectively. The cell suspensions were incubated for 1 hour at 37°C and centrifuged for 10 minutes at 1200×g. Supernatants (100 µl) were transferred to another sterile plate, and the released hemoglobin was measured absorbance readings at 570 nm. […] The hemolysis assay was repeated twice.

Series [2] deals with T1, SF-PhoQc (Shigella flexneri, UniProt Q83RR1).
T1 construct: The amplified DNA segment encodes PhoQ HK amino acids 251–486; made in house; host or cells: E. coli JM109
Kind of series: Pyrophosphate Reagent coupled enzymatic activity assay of SF-PhoQc. It is filed as biochemical, S. flexneri 2a 301. To be noted: for decrease of SF-PhoQc catalyzed consumption of ATP: Pyrophosphate Reagent. On the procedure:
The enzymatic activity of SF-PhoQc was determined using the Pyrophosphate Reagent, in which ATP initiates the reaction and ADP generated by ATP is accompanied by the reduction of NADH to NAD^+. The rate of NADH reduction to NAD^+ is detected by a change in absorbance readings at 340 nm. The activity of SF-PhoQc is measured by detecting a decrease in NADH at A340. Recombinant SF-PhoQc (25 µmol/L) was added to initiate the reaction, and the A340 value was recorded by SoftMax vision 4.8 each minute for 30 minutes. The A340 value reduced from 1.47 to 0.65 in the presence of SF-PhoQc (Figure 2).
Figure 2 The activity of recombinant SF-PhoQc. The activity of SF-PhoQc from the Pyrophosphate Reagent was shown. All assays were conducted in a 96-well microplate spectrophotometer. The assay mixture (total volume was 200 µl) contained 25 mmol/L KCl, 2.5 mmol/L MgCl2, 2 mmol/L ATP, 1 mmol/L phosphoendpyruvate, 0.35 mmol/L NADH, 1.5 U/ml PK, 1.25 U/ml LDH and 50 mmol/L Tris-Cl (pH 8.0). Protein SF-PhoQc was added to a final concentration of 25 µmol/L to start the reaction. After SF-PhoQc was added, the A340 value was recorded by SoftMax vision 4.8 every minute for 30 minutes.
The enzymatic activity of SF-PhoQc was measured using both a Pyrophosphate Reagent (Sigma-Aldrich, MO, USA) and a Luminescent Kinase Assay (Promega, WI, USA). The Pyrophosphate Reagent was performed to confirm the inhibitory activities of the effective potential PhoQ inhibitors in the bioinformatics approach. All reactions were carried out in solid black, flat-bottomed 96-well plates. The Pyrophosphate Reagent was performed at 28°C by monitoring the decrease of NADH by a decrease in absorbance readings at 340 nm (ε340 = 6180 M^−1·cm^−1) in the presence of ATP. The final reaction mixture for the Pyrophosphate Reagent contained 25 µmol/L purified SF-PhoQc, 25 mmol/L KCl, 2.5 mmol/L MgCl2, 2 mmol/L ATP, 1 mmol/L phosphoendpyruvate, 0.35 mmol/L NADH, 1.5 U/ml PK, 1.25 U/ml LDH and 50 mmol/L Tris-Cl (pH 8.0). The enzyme activity was determined in the presence of various concentrations of potential PhoQ inhibitors […] to investigate dose-dependent inhibition effects. The A340 value was recorded by SoftMax vision 4.8 every minute, for 30 minutes. The rate of SF-PhoQc enzymatic activity inhibition by a compound was calculated by the following formula: [drawing 1]
Rp (Ratio of Phosphorylation) was defined as the ratio of the decrease activity of SF-PhoQc treated with compound vs the activity of SF-PhoQc treated without compounds. Rp was stand for the percentage of decrease activity of SF-PhoQc.
IC50(the concentration of inhibition of 50%)values of potential PhoQ inhibitors were obtained by fitting the data to a sigmoid dose–response equation using Origin 7.0 software (OriginLab, Northampton, USA).

The next series concerns S. flexneri 2a 301. Kind of series: Gentamicin protection assay, HeLa cell invasion by Sf301. It is filed as cell-based. To be noted: bacteria treated 8 h, Figure S4. On the procedure:
Supplementary file pone.0023100.s004.tif: Figure S4 The effects of potential PhoQ inhibitors on cell invasion of Shigella Sf 301. […] The bacteria were treated with each of the four potential PhoQ inhibitors grown for 8 h. Then the bacteria were inoculated with HeLa cells for 60 minutes prior to the addition of gentamicin to kill extracellular bacteria. After the incubation, the HeLa cells in each well were lysed in 1 ml of PBS containing 0.1% Triton X-100. The lysates were diluted and plated onto LB agar plates in triplicate. Colonies grown on LB plates were counted. The results of the assays were expressed as the number of bacteria recovered from gentamicin-treated cells divided by the number of inoculated bacteria added to the cell. Values are means ± standard deviations from 6 independent wells. *p<0.01 vs. Sf301. […] (TIF) Click here for additional data file.

Series [3] addresses T1, SF-PhoQc. Briefly: Luminescent Kinase Assay of SF-PhoQc. It is filed as biochemical, S. flexneri 2a 301. On the procedure: Luminescent Kinase Assay was used to confirm the effects of compounds 1, 2, 3 and 4 on the enzymatic activity of SF-PhoQc. In the Luminescent Kinase Assay, the putative kinase activity of SF-PhoQc protein was measured by quantifying the amount of ATP that remained in solution after the reaction. […] Next, the effect of each compound on the enzymatic activity of SF-PhoQc was measured.
In the Luminescent Kinase assay, reactions were performed in solid black, flat-bottomed 96-well plates. To determine the IC50 of potential PhoQ HK inhibitors, each compound underwent 2-fold serial dilutions with DMSO (0.1%) and was added into the reaction mixture. The final reaction mixture contained 4 µg of purified SF-PhoQc, 40 mmol/L Tris-Cl (pH 7.5), 16 mmol/L MgCl2, 0.8 mmol/L DTT and different concentration of 100, 50, 25, 12.5, 6.25 or 3.125 µmol/L compound, respectively. After incubation at 30°C for 25 minutes, 3 µmol/L ATP was added, and the reaction was incubated at 30°C for another 25 minutes. Next, an equal volume of Luminescent Kinase Reagent was added to each well, mixed and kept at room temperature for 10 minutes before recording the luminescence reading on a Fluoroskan Ascent FL machine (Thermo Scientific, USA). The rate of phosphorylation inhibition by a compound was calculated with the following formula: [drawing 2]
The IC50 value of each compound was determined using the Origin 7.0 software (OriginLab, Northampton, USA).

From paper PMC3154276, “The Effect of the Potential PhoQ Histidine Kinase Inhibitors on Shigella flexneri Virulence” (PLoS ONE, 2011) come the findings set out here.

Molecules are shown by their SMILES.

In general, IC50 refers to the concentration at which inhibition is half-maximal. The low end stands for greater potency, the high end for weaker potency.

T1 sequence (Q83RR1 251-486): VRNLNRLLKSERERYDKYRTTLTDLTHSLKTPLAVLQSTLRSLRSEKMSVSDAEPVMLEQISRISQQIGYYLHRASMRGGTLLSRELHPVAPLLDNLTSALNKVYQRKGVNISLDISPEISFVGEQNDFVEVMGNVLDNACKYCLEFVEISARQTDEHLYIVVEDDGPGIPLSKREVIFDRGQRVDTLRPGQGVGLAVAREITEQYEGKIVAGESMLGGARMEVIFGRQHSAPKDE

For the compound `O=C(Nc1ccc(C2(c3cccc(NC(=O)c4cccc5ccccc45)c3)c3ccccc3C(=O)c3ccccc32)cc1)c1ccc2ccccc2c1` [Compound 1], in series [1], the hemolysis at 1 h, 25 µmol/L was below 0.1% and the hemolysis at 1 h, 100 µmol/L is below 0.1%. Also, on SF-PhoQc [2], it took 12 ± 3.91 µM to reach half-maximal inhibition (IC50) and the “decrease of SF-PhoQc catalyzed consumption of ATP” value (shortened to “decrease”) turned out to be 100%. For the same compound, in the series with S. flexneri 2a 301, the “effect on HeLa cell invasion ability of Sf301” value (from here on “effect”) is recorded as “can inhibit”. Also, the 50% inhibitory concentration (IC50) at SF-PhoQc [3] amounted to 69.37 ± 0.56 µM.

In series [1], `CCOc1ccccc1-c1cc(C(=O)N/N=C/c2ccc(OCc3ccccc3)c(OC)c2)c2ccccc2n1` [Compound 2] came in with a hemolysis at 1 h, 25 µmol/L below 0.1% and a hemolysis at 1 h, 100 µmol/L below 0.1%. Also, on SF-PhoQc [2], half-maximal inhibition (IC50) was put at 57 ± 1.04 µM and the “decrease” value was determined as 82.3%. Further, the “effect” value in the series on S. flexneri 2a 301 is on record as “can inhibit”. The compound also yielded an IC50 against SF-PhoQc [3] of 48.9 ± 14.7 µM.

In series [1], `O=C(O)c1ccc(Cl)c(-c2ccc(/C=N/NC(=O)c3ccc(Br)cc3)o2)c1` [Compound 3] registered a hemolysis at 1 h, 25 µmol/L below 0.1% and a hemolysis at 1 h, 100 µmol/L below 0.1%. Also, at SF-PhoQc [2], the half-maximal inhibitory concentration (IC50) was determined as 27.8 ± 10.7 µM and the “decrease” value stood at 67.1%. In addition, the “effect” value in the series with S. flexneri 2a 301 is “can inhibit”. For the same compound, the concentration for half-maximal inhibition (IC50) at SF-PhoQc [3] came out at 7.99 ± 5.61 µM.

In series [1], `O=C(O)c1cc(-c2ccc(-c3ccccc3Cl)o2)nc2ccc3ccccc3c12` [Compound 4] displayed a hemolysis at 1 h, 25 µmol/L below 0.1% and a hemolysis at 1 h, 100 µmol/L below 0.1%. At SF-PhoQc [2], it took 27.8 ± 5.59 µM to reach half-maximal inhibition (IC50) and the “decrease” value is 65.8%. Besides, the “effect” value in the series on S. flexneri 2a 301 was “no effect”. This compound also showed an IC50 on SF-PhoQc [3] of 27.2 ± 15.4 µM.
